Measured values as given in US12642270B2, “Substituted thiophene carboxamides, thiophene carboxylic acids and derivatives thereof” (Bayer Aktiengesellschaft, priority 2019, dated 2026).

Experiment: Log P by HPLC on reversed phase columns (EEC directive 79/831 Annex V.A8)
Format: physicochemical
Conditions: method [a]
Outline: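 Values come from retention times calibrated against alkan-2-ones (3–16 carbons) by linear interpolation, using reversed-phase LC-UV per EEC directive 79/831 Annex V.A8. Acetonitrile gradient 10–95% with 0.1% formic acid [a], 0.001 M ammonium acetate [b] or 0.1% phosphoric acid [c]; several values within one method separated by "+".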

| LogP | Compound |
| --- | --- |
| 3.26^[a] | COC(=O)C(CCSC)NC(=O)c1sc(C#N)c(Cl)c1Cl (stereo not shown) [1.0791] |
| 2.80^[a] | CCOC(=O)C(COC)NC(=O)c1sc(C#N)c(Br)c1C (stereo not shown) [1.0792] |
| 2.54^[a] | CCOC(=O)CNC(=O)c1sc(C)c(Cl)c1F [1.0793] |
| 3.51^[a] | CCOC(=O)C(CCSC)NC(=O)c1sc(Br)c(Br)c1C#N (stereo not shown) [1.0794] |
| 3.59^[a] | CCOC(=O)C1(NC(=O)c2sc(Br)c(Br)c2F)CSC1 [1.0795] |
| 1.48^[a] | N#Cc1sc(C(=O)NCC(N)=O)c(Cl)c1Cl [1.0796] |
| 2.59^[a] | CCOC(=O)CNC(=O)c1sc(Br)c(Br)c1C#N [1.0797] |
| 2.24^[a] | COC(=O)CNC(=O)c1sc(Br)c(Br)c1C#N [1.0798] |
| 2.73^[a] | CCOC(=O)C1(NC(=O)c2sc(Br)c(Br)c2C#N)CC1 [1.0799] |
| 2.40^[a] | COC(=O)C1(NC(=O)c2sc(Br)c(Br)c2C#N)CC1 [1.0800] |
| 2.81^[a] | COC(=O)C(C)(C)NC(=O)c1sc(Br)c(Br)c1C#N [1.0801] |
| 2.11^[a] | N#CCNC(=O)c1sc(Br)c(Br)c1C#N [1.0802] |
| 2.29^[a] | CCOC(=O)C(CO)NC(=O)c1sc(Br)c(Br)c1C#N (stereo not shown) [1.0803] |
| 3.67^[a] | CCOC(=O)CN(OC)C(=O)c1sc(Br)c(Br)c1Cl [1.0804] |
| 3.39^[a] | CCOC(=O)C(NC(=O)c1sc(Br)c(Br)c1C#N)C(=O)OCC [1.0805] |
| 2.87^[a] | COC(=O)C1(NC(=O)c2sc(Br)c(Br)c2C#N)CCC1 [1.0806] |
| 1.71^[a] | N#Cc1c(C(=O)NC2(C(N)=O)CC2)sc(Cl)c1Cl [1.0807] |
| 2.33^[a] | CCOC(=O)C(CO)NC(=O)c1sc(C#N)c(Cl)c1Cl (stereo not shown) [1.0809] |
| 2.23^[a] | CCOC(=O)C(CO)NC(=O)c1sc(Cl)c(Cl)c1C#N (stereo not shown) [1.0810] |
| 4.05^[a] | CCOC(=O)C(CCSC)NC(=O)c1sc(Br)c(Br)c1F (stereo not shown) [1.0812] |
| 3.60^[a] | CCOC(=O)C(CCSC)NC(=O)c1sc(C#N)c(Cl)c1Cl (stereo not shown) [1.0813] |
| 3.46^[a] | CCOC(=O)C(CCSC)NC(=O)c1sc(Cl)c(Cl)c1C#N (stereo not shown) [1.0814] |
| 3.23^[a] | CCOC(=O)C1(NC(=O)c2sc(Br)c(Br)c2C#N)CCC1 [1.0815] |
| 2.84^[a] | CCOC(=O)[C@H](CO)NC(=O)c1sc(Cl)c(Cl)c1Br [1.0816] |

| LogP | Compound |
| --- | --- |
| 2.84^[a] | CCOC(=O)[C@H](CO)NC(=O)c1sc(Br)c(Br)c1Cl [1.0817] |
| 2.80^[a] | CCOC(=O)C(C)NC(=O)c1sc(C#N)c(Br)c1C (stereo not shown) [1.0823] |
| 4.01^[a] | CCOC(=O)C(C)NC(=O)c1sc(Br)c(Br)c1Cl (stereo not shown) [1.0824] |
| 2.82^[a] | COC(=O)CNC(=O)c1sc(I)c(Cl)c1Cl [1.0826] |
| 3.24^[a] | CCOC(=O)CNC(=O)c1sc(I)c(Cl)c1Cl [1.0827] |
| 3.01^[a] | COC(=O)C1(NC(=O)c2sc(I)c(Cl)c2Cl)CC1 [1.0828] |
| 2.22^[a] | CCOC(=O)[C@H](CO)NC(=O)c1sc(Cl)c(Cl)c1C#N [1.0830] |
| 2.26^[a] | CCOC(=O)[C@H](CO)NC(=O)c1sc(C#N)c(Cl)c1Cl [1.0831] |
| 2.54^[a] | CCOC(=O)[C@H](CO)NC(=O)c1sc(Br)c(Br)c1F [1.0832] |
| 2.07^[a] | CCOC(=O)[C@H](CO)NC(=O)c1sc(C#N)c(Cl)c1C [1.0833] |
| 2.16^[a] | CCOC(=O)C(CO)NC(=O)c1sc(C#N)c(Br)c1C (stereo not shown) [1.0834] |
| 2.12^[a] | CCOC(=O)C(CO)NC(=O)c1sc(C#N)c(Cl)c1C (stereo not shown) [1.0835] |
| 3.03^[a] | COC(=O)C(CCSC)NC(=O)c1sc(C#N)c(Cl)c1C (stereo not shown) [1.0836] |
| 2.75^[a] | N#CCNC(=O)c1sc(Br)c(Cl)c1Br [1.0837] |
| 4.55^[a] | CCOC(=O)C(CCSC)NC(=O)c1sc(Br)c(Cl)c1Br (stereo not shown) [1.0838] |
| 3.81^[a] | COC(=O)C(C)(C)NC(=O)c1sc(Br)c(Cl)c1Br [1.0840] |
| 2.59^[a] | CCOC(=O)[C@H](CO)NC(=O)c1sc(Br)c(Cl)c1C [1.0841] |
| 2.62^[a] | CCOC(=O)[C@H](CO)NC(=O)c1sc(Cl)c(Br)c1C [1.0842] |
| 2.64^[a] | CCOC(=O)[C@H](CO)NC(=O)c1sc(Br)c(Br)c1C [1.0843] |
| 2.60^[a] | CCOC(=O)C(CO)NC(=O)c1sc(Br)c(Cl)c1C (stereo not shown) [1.0844] |
| 3.06^[a] | CCOC(=O)CN(OC)C(=O)c1sc(C#N)c(Cl)c1Cl [1.0845] |
| 2.11^[a] | CCOC(=O)[C@H](CO)NC(=O)c1sc(C#N)c(Br)c1C [1.0846] |
| 2.89^[a] | CCOC(=O)C(CO)NC(=O)c1sc(Br)c(Cl)c1Br (stereo not shown) [1.0847] |
| 2.82^[a] | CCOC(=O)CNC(=O)c1sc(C)c(Cl)c1Cl [1.0848] |

Same assay, conditions: method marked [a]

| LogP | Compound |
| --- | --- |
| 3.63^[a] | COC(=O)C(CCSC)NC(=O)c1sc(Cl)c(Br)c1C (stereo not shown) [1.0735] |
| 4.02^[a] | CCOC(=O)[C@H](CCSC)NC(=O)c1sc(Cl)c(Br)c1C [1.0736] |
| 1.81^[a] | CNC(=O)CNC(=O)c1sc(Br)c(Br)c1F [1.0737] |
| 2.08^[a] | CNC(=O)CNC(=O)c1sc(Cl)c(Cl)c1Br [1.0738] |
| 2.75^[a] | CCOC(=O)CNC(=O)c1sc(C#N)c(Br)c1Br [1.0739] |
| 3.02^[a] | CCOC(=O)C1(NC(=O)c2sc(C#N)c(Br)c2Br)CC1 [1.0740] |
| 3.34^[a] | CCOC(=O)C(C#N)NC(=O)c1sc(Br)c(Br)c1Cl (stereo not shown) [1.0741] |
| 2.66^[a] | CCOC(=O)C(C#N)NC(=O)c1sc(C#N)c(Br)c1C (stereo not shown) [1.0742] |
| 3.35^[a] | CCOC(=O)C(C#N)NC(=O)c1sc(Cl)c(Cl)c1Br (stereo not shown) [1.0743] |
| 3.38^[a] | CCOC(=O)C(C#N)NC(=O)c1sc(Cl)c(Br)c1Br (stereo not shown) [1.0744] |
| 2.50^[a] | N#CCNC(=O)c1sc(Cl)c(Cl)c1C(F)F [1.0745] |
| 3.55^[a] | CCOC(=O)C(C)(C)NC(=O)c1sc(Cl)c(Cl)c1C(F)F [1.0746] |
| 3.00^[a] | COC(=O)C(NC(=O)c1sc(Cl)c(Cl)c1C(F)F)C(=O)OC [1.0748] |
| 3.23^[a] | CCOC(=O)CN(OC)C(=O)c1sc(C#N)c(Br)c1C [1.0749] |
| 4.04^[a] | COC(=O)[C@H](CCSC)NC(=O)c1sc(Br)c(Br)c1Cl [1.0750] |
| 3.06^[a] | COC(=O)C(CCSC)NC(=O)c1sc(C#N)c(Br)c1C (stereo not shown) [1.0751] |
| 3.54^[a] | CCOC(=O)C(CSC)NC(=O)c1sc(C#N)c(Cl)c1Cl (stereo not shown) [1.0752] |
| 3.97^[a] | CCOC(=O)C(CSC)NC(=O)c1sc(Cl)c(Br)c1C (stereo not shown) [1.0753] |
| 3.37^[a] | CCOC(=O)C(CSC)NC(=O)c1sc(Cl)c(Cl)c1C#N (stereo not shown) [1.0754] |
| 3.40^[a] | CCOC(=O)C(CSC)NC(=O)c1sc(Br)c(Br)c1C#N (stereo not shown) [1.0755] |
| 3.94^[a] | CCOC(=O)C(CSC)NC(=O)c1sc(Br)c(Cl)c1C (stereo not shown) [1.0756] |
| 4.89^[a] | CC(C)(C)OC(=O)C1(NC(=O)c2sc(Br)c(Br)c2Cl)CC(F)(F)C1 [1.0757] |
| 3.23^[a] | CCOC(=O)C(C#N)NC(=O)c1sc(Cl)c(Cl)c1C (stereo not shown) [1.0758] |
| 3.64^[a] | COC(=O)C(CCSC)NC(=O)c1sc(Br)c(Cl)c1C (stereo not shown) [1.0759] |
| 3.66^[a] | CCOC(=O)C(C)(C)NC(=O)c1sc(Cl)c(Br)c1C [1.0760] |
| 3.71^[a] | CCOC(=O)C(C)(C)NC(=O)c1sc(Br)c(Cl)c1C [1.0764] |

| LogP | Compound |
| --- | --- |
| 4.01^[a] | CCOC(=O)[C@H](CCSC)NC(=O)c1sc(Br)c(Cl)c1C [1.0765] |
| 4.04^[a] | COC(=O)C(CCSC)NC(=O)c1sc(Br)c(Br)c1Cl (stereo not shown) [1.0766] |
| 3.74^[a] | COC(=O)[C@H](CCSC)NC(=O)c1sc(Cl)c(Br)c1C [1.0767] |
| 3.60^[a] | COC(=O)[C@H](CCSC)NC(=O)c1sc(Br)c(Cl)c1C [1.0768] |
| 3.26^[a] | CCOC(=O)C(CSC)NC(=O)c1sc(C#N)c(Br)c1C (stereo not shown) [1.0769] |
| 3.14^[a] | COC(=O)C(CCSC)NC(=O)c1sc(Cl)c(Cl)c1C#N (stereo not shown) [1.0770] |
| 3.20^[a] | CCOC(=O)C(NC(=O)c1sc(C#N)c(Cl)c1C)C(=O)OCC [1.0771] |
| 3.91^[a] | CCOC(=O)C(NC(=O)c1sc(Br)c(Br)c1F)C(=O)OCC [1.0772] |
| 3.23^[a] | CCOC(=O)C(NC(=O)c1sc(C#N)c(Br)c1C)C(=O)OCC [1.0773] |
| 3.40^[a] | CCOC(=O)C(NC(=O)c1sc(Cl)c(Cl)c1C#N)C(=O)OCC [1.0774] |
| 4.30^[a] | CCOC(=O)C(NC(=O)c1sc(Cl)c(Cl)c1Br)C(=O)OCC [1.0775] |
| 3.91^[a] | CCOC(=O)C(COC)NC(=O)c1sc(Br)c(Br)c1Cl (stereo not shown) [1.0776] |
| 3.94^[a] | CCOC(=O)C(COC)NC(=O)c1sc(Cl)c(Cl)c1Br (stereo not shown) [1.0777] |
| 3.37^[a] | COC(=O)C(CCSC)NC(=O)c1sc(Br)c(Br)c1C#N (stereo not shown) [1.0778] |
| 2.89^[a] | CCOC(=O)C(CO)NC(=O)c1sc(Br)c(Br)c1Cl (stereo not shown) [1.0779] |
| 3.06^[a] | CCOC(=O)C(CO)NC(=O)c1sc(Cl)c(Cl)c1Br (stereo not shown) [1.0780] |
| 3.40^[a] | CCOC(=O)CNC(=O)c1sc(Br)c(Cl)c1Br [1.0781] |
| 3.56^[a] | CCOC(=O)C1(NC(=O)c2sc(Br)c(Cl)c2Br)CC1 [1.0782] |
| 4.33^[a] | CCOC(=O)C(NC(=O)c1sc(Br)c(Br)c1Cl)C(=O)OCC [1.0783] |
| 2.73^[a] | C#CCOC(=O)C1(NC(=O)c2sc(C#N)c(Cl)c2Cl)CC1 [1.0784] |
| 2.65^[a] | C#CCOC(=O)C1(NC(=O)c2sc(Cl)c(Cl)c2C#N)CC1 [1.0785] |
| 2.08^[a] | NC(=O)C1(NC(=O)c2sc(Cl)c(Cl)c2Br)CC1 [1.0786] |
| 2.10^[a] | NC(=O)C1(NC(=O)c2sc(Br)c(Br)c2Cl)CC1 [1.0787] |
| 1.67^[a] | N#Cc1sc(C(=O)NC2(C(N)=O)CC2)c(Cl)c1Cl [1.0788] |
| 1.61^[a] | Cc1c(C(=O)NC2(C(N)=O)CC2)sc(C#N)c1Br [1.0789] |
| 3.71^[a] | CCOC(=O)CN(OC)C(=O)c1sc(Cl)c(Cl)c1Br [1.0790] |
